From article PMC3175392, “Noninvasive In Vivo Quantification of Neutrophil Elastase Activity in Acute Experimental Mouse Lung Injury” (International Journal of Molecular Imaging, 2011)
Counter-ions that a name gives are not always drawn.

Experiments:
[1] = biological target: T1, NE (Mus musculus, UniProt Q3UP87); test: NE680 activation ex vivo in lung sections; conditions: 1 μM NE680, 37°C, 5 h
T1 construct: from tissue; host or cells: lung of LPS/fMLP-challenged CD-1 mice (frozen sections or in vivo)
T1 sequence (Q3UP87 27-265): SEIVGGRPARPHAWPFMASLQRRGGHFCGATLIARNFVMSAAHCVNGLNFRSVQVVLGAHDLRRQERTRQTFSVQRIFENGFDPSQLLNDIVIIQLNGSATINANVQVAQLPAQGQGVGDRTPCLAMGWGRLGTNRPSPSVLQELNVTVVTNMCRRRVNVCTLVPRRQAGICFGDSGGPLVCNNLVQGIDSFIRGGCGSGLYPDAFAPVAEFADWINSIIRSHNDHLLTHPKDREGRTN
Source text: To validate the specificity of NE680 activation by NE present in lungs, mice with lung inflammation and control healthy mice (which had not received NE680) were euthanized by CO2 inhalation and lungs were removed and snap frozen in OCT. […] Fluorescence, as a measure of agent activation, was captured under fluorescence microscopy using appropriate filters (Zeiss Axioskop 2 MOT Plus). DAPI was used as a nuclear counterstain.

[2] = biological target: T1, NE; test: In vivo FMT imaging of NE680 activation in LPS/fMLP acute lung injury
Source text: Acute lung inflammation was induced in mice according to published protocols with slight modifications. Male CD-1 mice were purchased from Charles River Laboratories (Wilmington, MA) and used when they reached 8–10 weeks of age. Mice were housed in environmentally controlled specific-pathogen-free conditions with water and low-fluorescence mouse chow (Harlan Teklad, Madison, WI). All animal experimental procedures were approved by PerkinElmer's Institutional Animal Care and Use Committee and were in accordance with veterinarian requirements. On day 1, mice were challenged intranasally (i.n.) with 100 μg of LPS (E. coli 111 : B4, Sigma, St. Louis, MO) solubilized in 40 μL PBS or PBS only. Eighteen hours later, mice received an intranasal instillation of the chemotactic peptide N-formyl-met-leu-phe (fMLP, Sigma, St. Louis, MO) at 200 nM in 40 μL PBS together with 4 nmoles of NE680.
For in vivo imaging, mice were first depilated using Nair and placed in a fluorescence molecular tomography (FMT) 2500 system (PerkinElmer, Boston, MA) imaging chamber to which is delivered a controlled amount of isoflurane/oxygen mixture keeping the mice anesthetized. Three-dimensional regions of interest (ROIs) were drawn around the chest area applying a universal threshold, equal to 40% of the mean concentration value of fluorescence in the LPS/fMLP mice (in nM). The total amount (in picomole) of fluorochrome was automatically calculated relative to internal standards generated with known concentrations of the appropriate fluorochrome. For each study, the mean fluorescence of the LPS/fMLP group was equaled to 100%, and then each mouse in that study was normalized accordingly. Shown are the grouped results of 3 studies, as the percentage of LPS/fMLP Lung Fluorescence (means ± S.E.M.).

[3] = biological target: T2, human PR3 (Homo sapiens, UniProt P24158); test: Inhibition of NE680 cleavage by human PR3; type: biochemical; conditions: NE680 0.5 μM as substrate; 30 min preincubation of enzyme with inhibitor, room temperature; read-out: IC50 on NE680 activation by human PR3
T2 construct: human neutrophil PR3 from Athens Research and Technology (Athens, GA); purchased Athens Research and Technology (Athens, GA); host or cells: human neutrophils
T2 sequence (P24158 28-256): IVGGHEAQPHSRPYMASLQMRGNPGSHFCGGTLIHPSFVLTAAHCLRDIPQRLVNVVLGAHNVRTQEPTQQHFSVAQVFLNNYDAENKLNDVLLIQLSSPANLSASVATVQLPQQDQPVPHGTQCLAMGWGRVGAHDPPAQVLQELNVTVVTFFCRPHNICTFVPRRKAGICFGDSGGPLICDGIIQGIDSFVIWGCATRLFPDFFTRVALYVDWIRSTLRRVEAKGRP
Method: Activation and protease selectivity of NE680 were determined with NE and closely related enzymes including PR3, Cat G, Cat B, and MMP-9. The assays were performed with 0.05 μM of enzyme and 0.5 μM NE680 in the optimized buffer and pH for each enzyme. Human NE was purchased from Innovative Research (Novi, MI), recombinant mouse NE, mouse Cat B, and active mouse Cat C from R and D Systems (Minneapolis, MN), human neutrophil PR3 from Athens Research and Technology (Athens, GA), and human neutrophil Cat G and recombinant human MMP-9 from BIOMOL International (Plymouth Meeting, PA). […] All the reactions were monitored at various time points at excitation/emission wavelengths of 663/690 nm with a cutoff at 665 nm using a fluorescence plate reader (Molecular Devices, San Leandro, CA). The released fluorescence is shown after subtracting background fluorescence of the agent without enzyme.
The IC50 against human NE and human PR3 were determined as described above using NE680 (0.5 μM). […]

[4] = system: neutrophil influx; test: Lung histology (H and E) after in vivo imaging, neutrophil influx; design: species or system mouse; conditions: single treatment 5 mg/kg i.n. 18 h after LPS; H and E sections
[5] = system: mouse NE; test: In vitro activation and protease selectivity of NE680 (mouse NE versus related enzymes); type: biochemical; conditions: at 5 h, 0.5 μM NE680, 0.05 μM enzyme, room temperature, optimized buffer for each enzyme
Method: Activation and protease selectivity of NE680 were determined with NE and closely related enzymes including PR3, Cat G, Cat B, and MMP-9. The assays were performed with 0.05 μM of enzyme and 0.5 μM NE680 in the optimized buffer and pH for each enzyme. Human NE was purchased from Innovative Research (Novi, MI), recombinant mouse NE, mouse Cat B, and active mouse Cat C from R and D Systems (Minneapolis, MN), human neutrophil PR3 from Athens Research and Technology (Athens, GA), and human neutrophil Cat G and recombinant human MMP-9 from BIOMOL International (Plymouth Meeting, PA). The reaction buffers were as follows: for human NE, 100 mM Tris (pH 7.5); for mouse NE, 50 mM Tris (pH 7.5), 1 M NaCl, 0.05% Brij-35; for Cat B, 25 mM MES (pH 5.0), 0.5 mM DTT (preactivation in 25 mM MES pH 5.0, 5 mM DTT for 15 min at room temperature); for MMP-9, 50 mM Tris (pH 7.5), 10 mM CaCl2, 150 mM NaCl, 0.05% Brij 35; for Cat G, 100 mM Tris (pH 7.5), 1.6 M NaCl; for human PR3, 100 mM Tris (pH 7.5), 500 mM NaCl. Mouse NE was activated by active mouse Cat C in 50 mM MES, 50 mM NaCl, pH5.5 at 37°C for 2 h. Reactions were carried out at room temperature in 250 μL in 96 well plates with black sides and bottom. All the reactions were monitored at various time points at excitation/emission wavelengths of 663/690 nm with a cutoff at 665 nm using a fluorescence plate reader (Molecular Devices, San Leandro, CA). The released fluorescence is shown after subtracting background fluorescence of the agent without enzyme.

[6] = Pharmacokinetics in CD-1 mice after i.v. injection; type: in vivo, mouse; conditions: female CD-1 mice, 2 nmol i.v. bolus in PBS, n = 3 mice per time point, HPLC of plasma; data not shown
Method: Twenty-four female retired breeder CD-1 mice (age 12–16 weeks, Charles River Laboratories, Wilmington, MA) received a bolus intravenous (i.v.) injection of NE680 (2 nmol in PBS). Terminal blood samples (n = 3 mice per time point) were collected by cardiac puncture from each mouse (following carbon dioxide asphyxiation). Plasma was collected by centrifugation (15,000 rpm for 10 min at 4°C) in EDTA-containing tubes. Aliquots (50 μL) of each plasma sample were placed in Eppendorf tubes. Cold methanol (150 μL) was added and the tubes were vortexed followed by centrifugation at 12,000 rpm and 4°C for 10 minutes. Approximately 110 μL of the supernatants were transferred to HPLC vials for analysis. Studies were conducted in accordance with and approved by PerkinElmer's IACUC Institutional Animal Care and Use Committee guidelines.
HPLC analyses were performed on a Waters model 2695 (Waters Corporation, Milford, MA). The PDA, Waters model 2998, was set to scan from 225 nm to 800 nm. The wavelength corresponding to the absorbance maximum of the fluorophore, 675 nm, was extracted from the PDA trace. The fluorescence spectrophotometer was set to an excitation wavelength of 675 nm and emission was monitored at 693 nm. Samples were analyzed on a C4, 300 Å, 5 μm, 150 × 4.6 mm HPLC column (Phenomenex, Torrance, CA). The aqueous mobile phase contained 25 mM ammonium formate, pH 8.5. […]

[7] = Fluorescence biodistribution in excised organs; type: in vivo, mouse; conditions: organs excised from 3 LPS/fMLP mice immediately after imaging, reflectance mode, mean fluorescence counts/energy
Method: Immediately following imaging, a cohort of mice were sacrificed (n = 3 per group), organs excised, and imaged in reflectance mode using the FMT 2500. The mean fluorescence intensity was measured after drawing an ROI around each organ. Data are expressed as mean fluorescence (in counts/energy) reported as means ± S.E.M.

[8] = Mouse plasma stability; type: in vitro ADME; conditions: normal mouse plasma diluted 1:4 in PBS pH 7.40 with 1 mM EDTA, 37°C, 24 h; HPLC; data not shown
Method: The agent was incubated in normal mouse plasma (Innovative Research, Novi, MI) diluted 1 : 4 in PBS, pH 7.40 with 1 mM EDTA, at 37°C for 24 h. The stability of the agent was analyzed by HPLC.
HPLC analyses were performed on a Waters model 2695 (Waters Corporation, Milford, MA). The PDA, Waters model 2998, was set to scan from 225 nm to 800 nm. The wavelength corresponding to the absorbance maximum of the fluorophore, 675 nm, was extracted from the PDA trace. The fluorescence spectrophotometer was set to an excitation wavelength of 675 nm and emission was monitored at 693 nm. Samples were analyzed on a C4, 300 Å, 5 μm, 150 × 4.6 mm HPLC column (Phenomenex, Torrance, CA). The aqueous mobile phase contained 25 mM ammonium formate, pH 8.5. Samples were eluted with acetonitrile at a flow rate of 1 mL/min. A gradient of 15% to 85% organic provided sufficient resolution. Standards were prepared with NE680 (0–2.5 μM) in mouse plasma. Standard curves had correlation coefficients >0.98.

[9] = 10 μm frozen sections, fluorescence microscopy

Row | suppression of NE680 activation in ALI lung sections ([1]; sivelestat 40 nM) | suppression of NE680 activation in ALI lung sections ([1]; sivelestat 0.4 and 4 μM) | IC50 [3] [nM] | fluorescence (agent activation) in lung sections from control mice [1, 9] | fluorescence (agent activation) in lung sections from mice with ALI [1, 9] | cleavage by mouse NE relative to Cat G ([5]; human Cat G) [fold] | cleavage by mouse NE relative to MMP-9 ([5]; human MMP-9) [fold] | cleavage by mouse NE relative to Cat B ([5]; mouse Cat B) | Compound | median concentration of lung fluorescence ([2]; ALI mice treated with sivelestat 5 mg/kg i.n. 15 min before fMLP and NE680, n = 12) [nM] | lung fluorescence as percentage of LPS/fMLP group ([2]; ALI mice treated with sivelestat 5 mg/kg i.n. 15 min before fMLP and NE680, mean ± S.E.M., n = 12, P = 0.0144) [%] | effect on neutrophil influx into the lung [4] | half-life in plasma (t 1/2) [6] [h] | average total fluorescence per lung ([2]; LPS/fMLP mice) | magnitude of signal in positive control animals across studies ([2]; LPS/fMLP mice, range between studies) | average total fluorescence per lung ([2]; control mice) [pmol fluorescence/lung] | median concentration of lung fluorescence ([2]; healthy controls, n = 12, 4 nmoles NE680 i.n., FMT 5 h later) [nM] | median concentration of lung fluorescence ([2]; mice with LPS/fMLP ALI, n = 16, 4 nmoles NE680 i.n., FMT 5 h later) [nM] | NE680 signal in lungs relative to all other tissues [7] | stability in mouse plasma [8]
1 | significantly inhibited | almost completely blocking | 700 |  |  |  |  |  | CC(C)(C)C(=O)Oc1ccc(S(=O)(=O)Nc2ccccc2C(=O)NCC(=O)O)cc1 [sivelestat, N-{2-[({4-[(2,2-dimethylpropanoyl)oxy]phenyl}sulfonyl)amino]benzoyl} glycine sodium salt, reference compound] | 73 | 53.57 ± 10.34 | not inhibited |  |  |  |  |  |  |  | 
2 |  |  |  | little or no apparent fluorescence | strong fluorescence | > 10 | > 30 | over 250 fold | PMAVVQSVP [NE680] |  |  |  | 3 | ~ 100 pmol fluorescence/lung | 30–190 pmols fluorescence/lung | < 5 | 0 | 164 | 30- to 170 fold | optically stable and remains quenched
